The target of the assay is T1, human IL-17AA (Homo sapiens, UniProt Q16552).
T1 construct: host or cells: HEK (human embryonic kidney) cells
T1 sequence (Q16552 24-155) 1: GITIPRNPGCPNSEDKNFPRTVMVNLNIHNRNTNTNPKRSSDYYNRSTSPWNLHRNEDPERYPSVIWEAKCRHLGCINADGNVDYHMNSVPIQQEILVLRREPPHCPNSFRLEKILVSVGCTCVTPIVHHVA
T1 sequence (Q16552 24-155) 2: T1 sequence (Q16552 24-155) 1
As to the kind of experiment: IL-8 release assay in human epithelial keratinocytes adult (HEKa). The class given is cell-based. The settings on record: 3 ng/ml human IL-17AA + 10 ng/ml human TNFalpha, 68-72 h, IL-8 by HTRF, read-out: Rel EC50 L-8 release assay. How it is done:
Example: IL-8 release assay in human epithelial keratinocytes adult (HEKa) Keratinocytes were seeded at 3500 cells/well in 384-well ViewPlates (Perkin Elmer) in Epilife medium (Thermo Fisher) containing human keratinocyte growth supplement (HKGS) without hydrocortisone and incubated in a humid incubator at 37° C., 5% CO2, overnight. The following day growth medium was removed and 25 μl fresh Epilife 10 medium added. 75 nl test compound in 100% DMSO was added into each well reserved
for test compounds, by the use of acoustic pipetting. The remaining wells received an equal volume of DMSO only, as vehicle control, or terfenadine in DMSO, as a positive control for any cytotoxic compounds. Subsequently, another 25 μl Epilife medium was added to each well. Finally, wells containing test compounds and wells prepared to yield 15 maximum stimulation received 25 μl of 9 ng/ml recombinant, human embryonic kidney cell (HEK)-derived human IL-17AA+30 ng/ml human TNF-alpha, in Epilife medium. Wells prepared to define 100% inhibition of IL-17 effects received 25 μl of 30 ng/ml human TNF-alpha alone, in Epilife medium. Final concentrations were 3 ng/ml HEKhuman IL-17AA+10 ng/ml human TNFalpha (maximum stimulation) and 10 ng/ml 20 human TNFalpha alone (100% inhibition, Emax), respectively. Cells were incubated for 68-72 h in the incubator. IL-8 released from the cells was measured by the use of a commercial homogenous time-resolved fluorescence (HTRF) assay (CisBio). 2 μl cell culture supernatant was transferred to a 384-well Proxiplate. 5 μl HTRF reagent was added and the plates incubated sealed in the dark for 3-22 h at room temperature. Time resolved fluorescence was read at 665 vs 620 nm, with excitation at 320 nm, and IL-8 levels calculated as percent of controls. Reduction of the amount of secreted IL-8 indicates decreased IL-17 signaling. Concentration response curves were fitted by the use of a four-parameter logistic equation. Relative IC50 and Emax were reported from 5 curves showing acceptable fit (r2>0.9). Cytotoxicity was measured in the cell-containing
Compounds of the present invention were tested in the IL-8 release assay in human epithelial keratinocytes.
For orientation: In TR-FRET formats the signal depends on donor and acceptor labels being close together.
Consider `Cc1n[nH]c(C)c1-c1ccc(NC(=O)[C@H](Cc2cc(-c3cccc(CN4C[C@H]5C[C@@H]4CN5)c3)ccc2Cl)NC(=O)C2(F)CC2)cc1` [Example 310, N-[(1S)-1-[[2-chloro-5-[3-[[(1R,4R)-2,5-diazabicyclo[2.2.1]heptan-2-yl]methyl]phenyl]phenyl]methyl]-2-[4-(3,5-dimethyl-1H-pyrazol-4-yl)anilino]-2-oxo-ethyl]-1-fluoro-cyclopropanecarboxamide], for which the EC50 (as a rule, the concentration at which the effect is half-maximal) lay within 100 to 1000 nM. Then `Cc1n[nH]c(C)c1-c1ccc(NC(=O)[C@@H](NC(=O)C2(F)CC2)[C@@H]2CCc3ccc(-c4cc(N5C[C@@H]6C[C@H]5CO6)ncn4)cc32)cc1` [Example 356, N-[(1S)-2-[4-(3,5-dimethyl-1H-pyrazol-4-yl)anilino]-1-[(1R)-6-[6-[(1S,4S)-2-oxa-5-azabicyclo[2.2.1]heptan-5-yl]pyrimidin-4-yl]indan-1-yl]-2-oxo-ethyl]-1-fluoro-cyclopropanecarboxamide], with 100 to 1000 nM; and `Cc1n[nH]cc1-c1ccc(NC(=O)C(NC(=O)c2ccnn2C)C(c2ccccc2)c2cccc(-c3ccc(=O)n(C(C)C)c3)c2)cc1` (single isomer, unassigned; diastereomer 1) [Example 235, N-[1-[[3-(1-isopropyl-6-oxo-3-pyridyl)phenyl]-phenyl-methyl]-2-[4-(3-methyl-1H-pyrazol-4-yl)anilino]-2-oxo-ethyl]-2-methyl-pyrazole-3-carboxamide (Diastereomer 1)], with under 100 nM; and `Cc1n[nH]c(C)c1-c1ccc(NC(=O)[C@@H](NC(=O)C2(F)CC2)[C@@H]2CCCc3ccc(-c4cc(C)c(=O)n(C(C)C)c4)cc32)cc1` [Example 391, N-[(1S)-2-[4-(3,5-dimethyl-1H-pyrazol-4-yl)anilino]-1-[(1R)-7-(1-isopropyl-5-methyl-6-oxo-3-pyridyl)tetralin-1-yl]-2-oxo-ethyl]-1-fluoro-cyclopropanecarboxamide], with under 100 nM. For `Cc1cnn(C)c1-c1ccc(NC(=O)[C@@H](NC(=O)c2ccnn2C)[C@@H](c2cccc(-c3cncc(N4C[C@@H]5C[C@H]4CO5)n3)c2)C2CC2)cc1` [Example 349, N-[(1S)-1-[(R)-cyclopropyl-[3-[6-[(1S,4S)-2-oxa-5-azabicyclo[2.2.1]heptan-5-yl]pyrazin-2-yl]phenyl]methyl]-2-[4-(2,4-dimethylpyrazol-3-yl)anilino]-2-oxo-ethyl]-2-methyl-pyrazole-3-carboxamide] the value was under 100 nM; for `Cc1ncn(C)c1-c1ccc(NC(=O)[C@H](Cc2cc(-c3ccnc(N4CCN(C)CC4)c3)ccc2Cl)NC(=O)c2ccnn2C)cc1` [Example 213, N-[(1S)-1-[[2-chloro-5-[2-(4-methylpiperazin-1-yl)-4-pyridyl]phenyl]methyl]-2-[4-(3,5-dimethylimidazol-4-yl)anilino]-2-oxo-ethyl]-2-methyl-pyrazole-3-carboxamide], 100 to 1000 nM; for `Cn1cncc1-c1ccc(NC(=O)[C@H](Cc2cc(-c3ccnc(C(C)(O)C4CC4)c3)ccc2Cl)NC(=O)c2ccnn2C)cc1` (stereo partly drawn) [Example 141, N-[(1S)-1-[[2-chloro-5-[2-(1-cyclopropyl-1-hydroxy-ethyl)-4-pyridyl]phenyl]methyl]-2-[4-(3-methylimidazol-4-yl)anilino]-2-oxo-ethyl]-2-methyl-pyrazole-3-carboxamide], under 100 nM.

With `Cc1n[nH]cc1-c1ccc(NC(=O)C(NC(=O)OC2CC2)C(c2ccccc2)c2cccc(-c3ccc(=O)n(C(C)C)c3)c2)cc1` (single isomer, unassigned; diastereomer 3) [Example 244, cyclopropyl N-[1-[[3-(1-isopropyl-6-oxo-3-pyridyl)phenyl]-phenyl-methyl]-2-[4-(3-methyl-1H-pyrazol-4-yl)anilino]-2-oxo-ethyl]carbamate (Diastereomer 3)], the EC50 was over 1000 nM. For `Cc1cnn(C)c1-c1ccc(NC(=O)[C@@H](NC(=O)c2ccnn2C)[C@@H](c2cccc(-c3cncc(N4C[C@@H]5C[C@H]4CO5)c3)c2)C2CC2)cc1` [Example 348, N-[(1S)-1-[(R)-cyclopropyl-[3-[5-[(1S,4S)-2-oxa-5-azabicyclo[2.2.1]heptan-5-yl]-3-pyridyl]phenyl]methyl]-2-[4-(2,4-dimethylpyrazol-3-yl)anilino]-2-oxo-ethyl]-2-methyl-pyrazole-3-carboxamide] the value was under 100 nM; for `Cc1n[nH]c(C)c1-c1ccc(NC(=O)[C@H](Cc2cc(-c3ccnc(N4CCC5(CC4)COC5)n3)ccc2Cl)NC(=O)C2(F)CC2)cc1` [Example 317, N-[(1S)-1-[[2-chloro-5-[2-(2-oxa-7-azaspiro[3.5]nonan-7-yl)pyrimidin-4-yl]phenyl]methyl]-2-[4-(3,5-dimethyl-1H-pyrazol-4-yl)anilino]-2-oxo-ethyl]-1-fluoro-cyclopropanecarboxamide], under 100 nM. Consider `CC(C)n1cc(-c2ccc(Cl)c(C[C@H](NC(=O)O[C@H](C)C(F)(F)F)C(=O)Nc3ccc(-c4nncn4C)cc3)c2)ccc1=O` [Example 286, [(1R)-2,2,2-trifluoro-1-methyl-ethyl] N-[(1S)-1-[[2-chloro-5-(1-isopropyl-6-oxo-3-pyridyl)phenyl]methyl]-2-[4-(4-methyl-1,2,4-triazol-3-yl)anilino]-2-oxo-ethyl]carbamate], for which the EC50 was over 1000 nM. Then `CC(C)Cn1cc(-c2ccc(Cl)c(C[C@H](NC(=O)c3ccnn3C)C(=O)Nc3ccc(-c4cncn4C)cc3)c2)nn1` [Example 212, N-[(1S)-1-[[2-chloro-5-(1-isobutyltriazol-4-yl)phenyl]methyl]-2-[4-(3-methylimidazol-4-yl)anilino]-2-oxo-ethyl]-2-methyl-pyrazole-3-carboxamide], with 100 to 1000 nM; and `Cn1cncc1-c1ccc(NC(=O)C(Cc2cc(-c3ccnc(N4CCC4CO)c3)ccc2Cl)NC(=O)c2ccnn2C)cc1` (stereo not drawn) [Example 187, N-[1-[[2-chloro-5-[2-[2-(hydroxymethyl)azetidin-1-yl]-4-pyridyl]phenyl]methyl]-2-[4-(3-methylimidazol-4-yl)anilino]-2-oxo-ethyl]-2-methyl-pyrazole-3-carboxamide], with 100 to 1000 nM; and `Cc1n[nH]c(C)c1-c1ccc(NC(=O)[C@@H](NC(=O)OC2CC2)[C@@H]2CCc3ccc(-c4cc(N5C[C@@H]6C[C@H]5CO6)ncn4)cc32)cc1` [Example 374, cyclopropyl N-[(1S)-2-[4-(3,5-dimethyl-1H-pyrazol-4-yl)anilino]-1-[(1R)-6-[6-[(1S,4S)-2-oxa-5-azabicyclo[2.2.1]heptan-5-yl]pyrimidin-4-yl]indan-1-yl]-2-oxo-ethyl]carbamate], with 100 to 1000 nM.

For `CC(C)n1cc(-c2ccc(Cl)c(C[C@H](NC(=O)C3(F)CC3)C(=O)Nc3ccc(-c4cncn4C)cc3)c2)ccc1=O` [Example 104, N-[(1S)-1-[[2-chloro-5-(1-isopropyl-6-oxo-3-pyridyl)phenyl]methyl]-2-[4-(3-methylimidazol-4-yl)anilino]-2-oxo-ethyl]-1-fluoro-cyclopropanecarboxamide], the concentration giving a half-maximal response (EC50) is 100 to 1000 nM. For `CC(C)n1cc(-c2ccc(Cl)c(C[C@H](NC(=O)C3(C(F)(F)F)CC3)C(=O)Nc3ccc(-c4nncn4C)cc3)c2)ccc1=O` [Example 117, N-[(1S)-1-[[2-chloro-5-(1-isopropyl-6-oxo-3-pyridyl)phenyl]methyl]-2-[4-(4-methyl-1,2,4-triazol-3-yl)anilino]-2-oxo-ethyl]-1-(trifluoromethyl) cyclopropanecarboxamide] the value was over 1000 nM; for `Cc1n[nH]c(C)c1-c1ccc(NC(=O)[C@@H](NC(=O)C2(F)CC2)[C@@H]2CCCc3ccc(-c4ccnc(N5C[C@H]6C[C@@H]5CO6)c4)cc32)cc1` [Example 387, N-[(1S)-2-[4-(3,5-dimethyl-1H-pyrazol-4-yl)anilino]-1-[(1R)-7-[2-[(1R,4R)-2-oxa-5-azabicyclo[2.2.1]heptan-5-yl]-4-pyridyl]tetralin-1-yl]-2-oxo-ethyl]-1-fluoro-cyclopropanecarboxamide], under 100 nM. Then `Cn1cnnc1-c1ccc(NC(=O)C(Cc2cc(-c3cccc(C(C)(C)O)c3)ccc2Cl)NC(=O)c2ccnn2C)cc1` (stereo not drawn) [Example 109, N-[1-[[2-chloro-5-[3-(1-hydroxy-1-methyl-ethyl)phenyl]phenyl]methyl]-2-[4-(4-methyl-1,2,4-triazol-3-yl)anilino]-2-oxo-ethyl]-2-methyl-pyrazole-3-carboxamide], with 100 to 1000 nM.

Source of the values: patent publication US20220162191A1, “SMALL MOLECULE MODULATORS OF IL-17” (LEO PHARMA A/S, priority 2019, published 2022).
